Here are results for 1 compound from patent US20100105647A1 (priority 2007, published 2010).

This assay relates to Alternaria brassicicola. Description: Test of Preventive Effect on Japanese Radish Alternaria Leaf Spot. The conditions noted are these: Japanese radish (cultivar: Wase 40-nichi), foliage application 500 ppm, 1 day high humidity at 24° C. plus 3 days greenhouse. The assay is classed as in vivo. As for the experimental part: The controlling effect was evaluated by visually observing the area of lesion spots on each of test plants at the time of investigation and comparing the area of lesion spots on a plant treated with the present compound with that on an untreated plant.
Test of Preventive Effect on Japanese Radish Alternaria Leaf Spot (Alternaria brassicicola)
Each of plastic pots was filled with sandy loam and sown with Japanese radish (cultivar: Wase 40-nichi), followed by growing in a greenhouse for 5 days. Each of the present compounds 1-19, 21-40 and 41 was formulated into a flowable formulation according to Formulation Example 6. The flowable formulation was diluted to a predetermined concentration (500 ppm) with water, and foliage application of the dilution was carried out so that the dilution adhered sufficiently to the surfaces of leaves of the Japanese radish. After the foliage application, the plant was air-dried and then inoculated by spraying a water suspension of spores of Alternaria brassicicola. After the inoculation, the plant was held under high humidity conditions at 24° C. for 1 day and held in a greenhouse for 3 days, and then the area of lesion spots was investigated.

Turning to `C#CCOc1c(F)cc(C(=O)NCC2=CCCCC2)cc1F` [compound 18], the “area of lesion spots on the treated plant relative to that on an untreated plant” value is no more than 30%.
